In doi:10.1101/2024.08.25.609621 (bioRxiv, 2024):
Values joined by “and” are separate entries in the source; they are usually repeats but may differ in a detail not shown here. Identical values can stand only once. Like-named read-outs stand apart in the source and are kept apart here.

Columns and labels:
Microsomal stability = assay type: in vitro ADME, mouse; conditions: mouse microsome stability
Experimental: The assay was carried out in 96-well plates at 37°C. Reaction mixtures (25 μl) contained a final concentration of 1 μM compound, 0.5 mg/ml liver microsomes protein, and 1 mM NADPH and/or 1 mM UDPGA (with alamethicin) in 100 mM potassium phosphate (pH 7.4) with 3 mM MgCl2. After 0, 15, 30, and 60 minutes, 150 μl of quench solution (100% acetonitrile with 0.1% formic acid) with internal standard was transferred to each well. Reactions containing the same components except the NADPH were prepared as the negative control. Plates were sealed, vortexed, and centrifuged at 4°C for 15 minutes at 4000 rpm.
The extent of metabolism was calculated as the disappearance of compounds, compared to the 0-min time incubation.

human macrodomain Targ1 = molecular target: T1, human macrodomain Targ1 (Homo sapiens, UniProt Q9Y530); test: HTRF peptide displacement assay, Targ1; assay type: binding; conditions: HTRF dose-response fit, Targ1
T1 sequence (Q9Y530 with tags, fused parts or gaps): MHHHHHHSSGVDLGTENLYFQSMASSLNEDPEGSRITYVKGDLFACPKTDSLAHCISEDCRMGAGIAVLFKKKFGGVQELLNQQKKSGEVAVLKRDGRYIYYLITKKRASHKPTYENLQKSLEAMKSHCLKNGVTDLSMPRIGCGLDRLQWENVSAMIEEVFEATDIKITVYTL

[1] = molecular target: SARS-CoV-2 NSP3 macrodomain (Mac1), P43 crystal form (Severe acute respiratory syndrome coronavirus 2, UniProt P0DTD1); assay type: binding; conditions: for 1-BDC: PanDDA background density correction; for Total number of conformations: ligand conformations modeled in Mac1 crystal structure; for X-ray crystallography: Binding site: site where the ligand is bound in the X-ray crystal structure; for X-ray crystal structure: X-ray crystal structure determined (TRUE); for Binding site: site of ligand in X-ray crystal structure
[2] = molecular target: SARS-CoV-2 NSP3 macrodomain (Mac1) (Severe acute respiratory syndrome coronavirus 2, UniProt P0DTD1); test: biochemical; assay type: binding; conditions: for SARS CoV-2 macrodomain HTRF assay: Hillslope: dose-response fit; for IC50: read-out: IC50
[3] = crystal soak 10 mM, P43 crystals
[4] = occupancy estimate from PanDDA BDC
[5] = crystal soak concentration 10 mM, event 1
[6] = crystal soak concentration 10 mM, P43 crystals
[7] = crystal soak concentration 10 mM
[8] = SARS CoV-2 macrodomain HTRF assay, dose-response
[9] = occupancy estimate from PanDDA 1-BDC

Compound | Occupancy difference (refined_occupancy - 2*(1-BDC)) [1] | Refined ligand occupancy (%) [1] [%] | PanDDA run, DMSO background map: 1-BDC ([1]; event 1) | 1-BDC [1] | Total number of conformations [1] | 2*(1-BDC) (%) [1, 4] [%] | X-ray crystallography: Binding site [1] | Hill slope ([2]; HTRF dose-response fit, Mac1) | SARS CoV-2 macrodomain HTRF assay: Hillslope [2] | also measured
CC(C)[C@H](CO)Nc1ncnc2[nH]ccc12 [AVI-1504, (2R)-3-Methyl-2-({7H-pyrrolo[2,3-d]pyrimidin-4-yl}amino)butan-1-ol] | – | – | – | – | – | – | – | – | – | CLint (mouse) (µl/min/mg protein), mean (Microsomal stability): <11.6 µl/min/mg protein
Nc1ncnc2c1ncn2[C@@H]1O[C@H](COP(=O)(O)OP(=O)(O)OC[C@H]2O[C@@H](O)[C@H](O)[C@@H]2O)[C@@H](O)[C@H]1O.[Na].[Na] [ADP-ribose, reference compound] | – | – | – | – | – | – | – | – | – | Hill slope (human macrodomain Targ1): 1.5
OC1(CNc2ncnc3[nH]ccc23)CCCC(C(F)(F)F)C1 (stereo not shown) [AVI-4309] | 0 | 40 | 0.2 | 0.2 | 1 | 40 | Adenosine | 1.4 | 1.4 | Hit (PanDDA run, overall) [1, 3]: TRUE; Hit (PanDDA run, DMSO background map) ([1]; crystal soak 10 mM): TRUE; 1-BDC (PanDDA run, DMSO background map) ([1]; crystal soak 10 mM, event 1): 0.21
OC1(CNc2ncnc3[nH]ccc23)CCC(F)(F)CC1 [AVI-4308] | 0 | 30 | 0.16 | 0.15 | 1 | 30 | Adenosine | 1.2 | 1.2 | Hit (PanDDA run, overall) [1, 3]: TRUE; Hit (PanDDA run, DMSO background map) ([1]; crystal soak 10 mM): TRUE; 1-BDC (PanDDA run, DMSO background map) ([1]; crystal soak 10 mM, event 1): 0.15
Cc1c[nH]c2ncnc(NCC3(O)CCC(C)(C)CC3)c12 [AVI-4330] | – | – | – | – | – | – | – | 1.3 | 1.3 | PanDDA run, DMSO background map: 1-BDC [1, 5]: 0.11; Pandda run, overall: Hit [1, 6]: TRUE; Pandda run, overall: Modeling comment [1, 6]: Weak density, not modeled; PanDDA run, DMSO background map: Hit [1, 7]: TRUE
OCC1C=CCCN1c1ncnc2[nH]ccc12 (stereo not shown) [AVI-5998] | 0 | 38 | 0.21 and 0.19 | 0.19 | 1 | 38 | Adenosine | 1.2 | 1.2 | –
C[C@H]1CC[C@H](CO)N(c2ncnc3[nH]ccc23)C1 (racemic) [AVI-4063] | 18 | 50 | – | 0.16 | 1 | 32 | Adenosine | 1.1 | 1.1 | Hit (PanDDA run, overall) [1, 3]: TRUE; Hit (PanDDA run, DMSO background map) ([1]; crystal soak 10 mM): TRUE; 1-BDC (PanDDA run, DMSO background map) ([1]; crystal soak 10 mM, event 1): 0.21 and 0.16
CC(C)(O)C1N(c2ncnc3[nH]ccc23)CCC1(C)C (stereo not shown) [AVI-4126] | 8 | 40 | – | 0.16 | 2 | 32 | Adenosine | 1.3 | 1.3 | Phe132 loop open state [1]: TRUE; PanDDA run, DMSO background map: 1-BDC [1, 5]: 0.17 and 0.16; Pandda run, overall: Hit [1, 6]: TRUE; Pandda run, overall: Modeled [1, 6]: TRUE; Pandda run, overall: Modeling comment [1, 6]: Duplicate, not modeled; PanDDA run, DMSO background map: Hit [1, 7]: TRUE; PanDDA run, DMSO background map: Modeled [1, 7]: TRUE
O[C@@H]1COC[C@H]1Nc1ncnc2[nH]ccc12 [AVI-1443] | – | – | – | – | – | – | – | – | – | Pandda run, overall: Modeling comment ([1]; crystal soak, soak concentration 5 mM): Weak density, not modeled; Pandda run, overall: Hit ([1]; crystal soak, soak concentration 5 mM, TRUE = ligand hit): TRUE; PanDDA run, DMSO background map: 1-BDC ([1]; soak concentration 5 mM): 0.05 and 0.04; PanDDA run, DMSO background map: Hit ([1]; soak concentration 5 mM): TRUE; IC50 [2, 8]: > 1 mM
OC1(CNc2ncnc3[nH]ccc23)CCCCC1 [AVI-6217] | 16 | 60 | 0.22 | 0.22 | 1 | 44 | Adenosine | 1.1 | 1.1 | –
OCC(Nc1ncnc2[nH]ccc12)C1CC1 (stereo not shown) [AVI-3651] | – | – | – | 0.18 | 1 | – | – | 1.2 | – | X-ray crystal structure [1]: TRUE; Pandda run, overall: Hit [1, 3]: TRUE; Pandda run, overall: Modeled [1, 3]: TRUE; PanDDA run, DMSO background map: 1-BDC ([1]; crystal soak 10 mM): 0.18; PanDDA run, DMSO background map: Hit ([1]; crystal soak 10 mM): TRUE; 2*(1-BDC) (%) [1, 9]: 36%; Binding site [1]: Adenosine; Hill slope [2, 8]: 1.2; inhibition at 200 µM ([2]; Single dose, concentration 200 μM, read-out: Average % competition): 85%; inhibition at 200 µM ([2]; preliminary screen, compound at 200 μM, mean of 3-4 technical replicates, read-out: % competition in HTRF assay): 85%
O[C@H]1COC[C@@H]1Nc1ncnc2[nH]ccc12 [AVI-1444, (3R,4S)-4-((7H-pyrrolo[2,3-d]pyrimidin-4-yl)amino)tetrahydrofuran-3-ol] | – | – | – | 0.08 | 1 | – | – | – | – | X-ray crystal structure [1]: TRUE; Pandda run, overall: Modeled ([1]; crystal soak, soak concentration 10 mM): TRUE; Pandda run, overall: Hit ([1]; crystal soak, soak concentration 10 mM, TRUE = ligand hit): TRUE; 2*(1-BDC) (%) [1, 9]: 16%; Binding site [1]: Adenosine; PanDDA run, DMSO background map: 1-BDC ([1]; soak concentration 10 mM): 0.08 and 0.11; PanDDA run, DMSO background map: Hit ([1]; soak concentration 10 mM): TRUE; IC50 [2, 8]: > 1 mM
Cc1c[nH]c2ncnc(NCC3(O)CCSCC3)c12 [AVI-4195, 4-(((5-methyl-7H-pyrrolo[2,3-d]pyrimidin-4-yl)amino)methyl)tetrahydro-2H-thiopyran-4-ol] | 0 | 28 | – | 0.14 | 1 | 28 | Adenosine | 1.2 | 1.2 | PanDDA run, DMSO background map: 1-BDC [1, 5]: 0.14; Pandda run, overall: Hit [1, 6]: TRUE; Pandda run, overall: Modeled [1, 6]: TRUE; Pandda run, overall: Modeling comment [1, 6]: Duplicate, not modeled; PanDDA run, DMSO background map: Hit [1, 7]: TRUE; PanDDA run, DMSO background map: Modeled [1, 7]: TRUE
OC1(CNc2ncnc3[nH]ccc23)CCSCC1 [AVI-4319] | 0 | 32 | 0.16 and 0.17 | 0.16 | 1 | 32 | Adenosine | 1.2 | 1.2 | –
